Test results from patent US7547752B2, “Scalp treatment” (Unilever Home & Personal Care USA division of Conopco, Inc., priority 2002, dated 2009).

Tested on: scalp itch in panellists with self-perceived dandruff
Experiment: Clinical anti-itch study: CLA lotion or lotion base applied before AD or NAD shampoo wash, investigator-scored itch degree
Type: in vivo, human
Settings: lotion applied one hour before hair wash, shampoo 3 times a week, weekly assessment, FIG. 1
Description: The effect of conjugated linoleic acid, used in conjunction with anti-dandruff (AD) and non anti-dandruff (NAD) shampoo, was clinically assessed using the following protocol.
The conjugated linoleic acid is used as a lotion (composition B). The lotion base comprises Tween™ 20, Carbopol™ 980, Sodium Hydroxide, Natrosol™ 250HHR, EDTA-2Na, glydant plus and water (composition A). The use of the lotion is followed by a shampoo wash with an NAD shampoo (composition C) or an AD shampoo (composition D).
A randomised monadic double blind study design was used based on a total of 240 screened panellists, male and female, with self-perceived dandruff. All 240 panellists used a placebo shampoo (composition C) in their normal hair wash routine for 4 successive weeks.
The panellists were divided into four groups (total number of panellists=240):
Group 1: 60 panellists. All panellists wash their hair with NAD shampoo at home 3 times a week and apply CLA lotion one hour prior to washing their hair.
Group 2: 60 panellists. All panellists wash their hair with NAD shampoo at home 3 times a week and apply lotion base (composition A) one hour prior to washing their hair.
Group 3: 60 panellists. All panellists wash their hair with AD shampoo at home 3 times a week and apply CLA lotion one hour prior to washing their hair.
Group 4: 60 panellists. […]

## Conjugated linoleic acid [CLA]
  degree of itch of the scalp (itch degree, standard scale 0-4): can increase the degree of scalp itch
